According to US20160238590A1, “COMPOSITIONS AND METHODS RELATED TO OAT SENSITIVITY” (IMMUSANT, INC., priority 2013, published 2016):
Where no end group is shown, it is not given here. [ ]: non-standard residue; d: D form. pGlu = O=C1CC[C@@H](C(=O)O)N1

Key:
Experiment in all cases: IFN-γ ELISpot with T cell clone
Assay type in all cases: cell-based, human
Patient 14 TCC-01 = conditions: TCC Patient 14 TCC-01 (Table 5); mean no antigen 11.3, high background, SFU >25 considered as positive responses
Protocol: (§1) Peripheral blood mononuclear cells (PBMC) were isolated from heparinized whole blood using Ficoll-Paque™ Plus density-gradient centrifugation (GE Healthcare). IFN-γ ELISpot (Mabtech) was set up as previously described^8.
(§2) Isolation of TCC from CD patients was carried out as previously described^8. Briefly, CFSE-labeled PBMC were incubated with antigen for 7 days in IMDM supplemented with 5% heat-inactivated pooled human serum (PHS), 2 mM GlutaMAX™, 100 μM MEM non-essential amino acids (both from Gibco, Invitrogen), and 50 μM 2-mercaptoethanol (Sigma). Proliferated cells were single-cell sorted into 96-well plates containing IL-2, IL-4, anti-CD3 mAb, irradiated feeder cells (allogeneic PBMC and JY-EBV). TCC were expanded and maintained in IL-2 and IL-4 and tested for specificity by ELISpot with irradiated HLA-matched PBMC as antigen-presenting cells. Expanded clones were tested for HLA-DQ restriction, TCR Vbeta usage, and with lysine scans to work out minimal epitopes. See Table 1 below for TCC and epitope information.

Patient 2 TCC-01 = conditions: TCC Patient 2 TCC-01 (Table 5); mean no antigen 1.1
Protocol: as §1, §2

Patient 6 TCC-01 = conditions: TCC Patient 6 TCC-01 (Table 5); mean no antigen 2
Protocol: as §1, §2

Row | Substance | IFN-γ ELISpot response (raw SFU) (Patient 14 TCC-01) [SFU] | IFN-γ ELISpot response (raw SFU) (Patient 2 TCC-01) [SFU] | IFN-γ ELISpot response (raw SFU) (Patient 6 TCC-01) [SFU]
1 | pEPFPEQPEQPYPQQ ([pGlu]PFPEQPEQPYPQQ) [wheat peptide, CAC11056.1 (53-66) [Q53 to pyroglutamate, Q57 to E, Q60 to E], reference compound] | 19 | 150 | 1
2 | pEPFPEQPEQPFPQP ([pGlu]PFPEQPEQPFPQP) [wheat peptide, ACO40292.1 (81-94) [Q81 to pyroglutamate, Q85 to E, Q88 to E], reference compound] | 14 | 119 | 5
3 | PQPFPEQPIPEQPQPY [barley peptide, 1103203A (27-42) [Q32 to E, Q37 to E]] | 38 | 1 | 60
4 | FPEQPVPEQPQPYP [barley peptide, 1103203B (30-43) [Q32 to E, Q37 to E]] | 78 | 2 | 99
5 | pEQPFTQPEQPTPIQ ([pGlu]QPFTQPEQPTPIQ) [wheat peptide, AAG17702.1 (78-91) [Q78 to pyroglutamate, Q85 to E], reference compound] | 13 | 0 | 65
6 | FPEQPIPEQPQPYP [barley peptide, 1103203A (30-43) [Q232 to E, Q37 to E]] | 66 | 1 | 92
